The record followed here is ChEMBL document CHEMBL1201862, “PubChem BioAssay data set” (2004).

The source made the active and inactive calls. Where only a bound is given, the exact number is not on record here.

The nature of assay [1]: Trypanosoma cruzi growth suppression in host cells – NIH3T3 host cells, beta-gal luminescence, confirmation (AID 2044).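 Also: intracellular parasites grown in NIH/3T3 mouse fibroblasts as host cells; luminescent beta-galactosidase reporter signal from transgenic T. cruzi replicating inside host cells; inhibitors lower the luminescence signal.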 Type of assay: functional, cell-based.
The nature of assay [2]: NIH3T3 cell viability loss – ATP luminescence, mouse fibroblasts, counter-screen, dose response (AID 2010).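 Also: cells exposed to compound for about 90 hours before reading.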 Type of assay: functional, cell-based.
In assay [3] the test system is Candida albicans. Description: fluconazole-resistant Candida strain growth inhibitors – CaCi-8 strain, dry powder, set 4, dose response (AID 488950). The format is functional, organism-based.
The subject of assay [4] is Candida albicans. Description: C. albicans growth inhibition with fluconazole – CaCi-2 strain, Alamar Blue, dry powder, set 4, dose response (AID 488943). Type of assay: functional, organism-based. For orientation: Alamar Blue is a resazurin reagent that responds to reducing activity.
The subject of assay [5] is Candida albicans. Description: antifungal activity against resistant Candida strain – CaCi-8, fluconazole, Alamar Blue, dry powder, dose response (AID 488807). Type of assay: functional, organism-based.
The test system of assay [6] is NIH3T3. The experiment in a line: mammalian cell viability counter-check – Alamar Blue, fluconazole, dry powder, cytotoxicity control for antifungal drug resistance project, dose response (AID 488809). The conditions noted are these: Mus musculus. Type of assay: functional, cell-based.
Assay [7] addresses Phospholipase A2 (Homo sapiens, UniProt P04054). Description: phospholipase A2 activity inhibition – biochemical, set 2, counter-screen for ATG4B inhibitor project, dose response (AID 588586). Type of assay: functional. On the technique in general: A counterscreen serves to expose hits that act by an unwanted route or on another target.
In assay [8] the target is Cysteine protease ATG4B (Homo sapiens, UniProt Q9Y4P1). The experiment in a line: autophagin-1 cysteine protease inhibition – biochemical, fluorescence, set 2, dose response (AID 588584). The format is functional.
The target in assay [9] is T1, Mannose-6-phosphate isomerase (Homo sapiens, UniProt P34949).
T1 sequence (P34949 whole entry): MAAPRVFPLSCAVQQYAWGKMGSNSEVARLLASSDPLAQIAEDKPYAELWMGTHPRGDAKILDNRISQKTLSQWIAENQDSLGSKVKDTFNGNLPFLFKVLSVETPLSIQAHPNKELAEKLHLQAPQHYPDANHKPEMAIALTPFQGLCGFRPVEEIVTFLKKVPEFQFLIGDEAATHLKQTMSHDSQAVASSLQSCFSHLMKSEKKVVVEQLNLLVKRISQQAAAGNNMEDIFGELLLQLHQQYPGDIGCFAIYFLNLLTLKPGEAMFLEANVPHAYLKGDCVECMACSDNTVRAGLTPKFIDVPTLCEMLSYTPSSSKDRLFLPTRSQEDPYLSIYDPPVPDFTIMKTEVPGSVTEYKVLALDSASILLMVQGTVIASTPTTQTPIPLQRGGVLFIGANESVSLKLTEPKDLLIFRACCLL
The experiment in a line: MPI enzyme activity inhibition – biochemical, fluorescence intensity, coupled assay, primary screen (AID 1209).

The target of assay [10] is T1, Mannose-6-phosphate isomerase. Description: phosphomannose isomerase inhibition – biochemical, fluorescence intensity, confirmation (AID 1535).
Assay [11] addresses DNA dC->dU-editing enzyme APOBEC-3A (Homo sapiens, UniProt P31941). The experiment in a line: A3A deaminase inhibition for selectivity – biochemical, dose response (AID 504722). Type of assay: functional.
Assay [12] addresses Phosphomannomutase 2 (Homo sapiens, UniProt O15305). The experiment in a line: Counter screen SAR assay for PMM2 inhibitors via a fluorescence intensity assay. [Related pubchem assays (depositor defined):AID1545, AID1574].
Assay [13] addresses DNA dC->dU-editing enzyme APOBEC-3G (Homo sapiens, UniProt Q9HC16). The experiment in a line: Dose Response confirmation of small molecule APOBEC3G DNA Deaminase Inhibitors via a fluorescence-based single-stranded DNA deaminase assay. [Related pubchem assays (depositor defined):AID493012, AID493028]. The format is functional.
The nature of assay [14]: viability of uninfected HEp-2 cells – cell-based, HTS, cytotoxicity control for RSV inhibitor project, dose response (AID 2410). Type of assay: functional. The conditions noted are these: human respiratory syncytial virus.
A short description of assay [15]: Luminescence Cell-Based Dose Retest to Confirm Inhibitors of Cancer Stem Cells. [Related pubchem assays (depositor defined):AID2717, AID2721]. The format is functional. The conditions noted are these: Homo sapiens.
Assay [16] has as its target Trypsin (Sus scrofa, UniProt P00761). The experiment in a line: trypsin protease activity blockade – biochemical, quenched peptide fluorescence, cherry-pick, selectivity assay for Rce1 protease inhibitor project, dose response (AID 488789).
The target of assay [17] is CAAX prenyl protease 2 (Homo sapiens, UniProt Q9Y256). Description: inhibition of Ras-converting CAAX protease Rce1 – biochemical, yeast membranes, quenched-peptide fluorescence, cherry-pick, dose response (AID 588849).
Assay [18] can be described thus: cells.
The target of assay [19] is DNA topoisomerase (Yersinia pestis, UniProt A0A2S9PM60). The experiment in a line: Yersinia topoisomerase I cleavage product accumulation – biochemical, cherry-pick, dose response (AID 588525).
Assay [20] relates to HEK293. Description: HEK293T cell viability loss, resazurin readout – resazurin fluorescence, cytotoxicity control for NF-kB activator project, SAR follow-up (AID 493251). The conditions noted are these: Homo sapiens. The format is functional, cell-based.
For assay [21], the system named is Jurkat. The experiment in a line: SAR Analysis of small molecule inhibitors of T-cell specific antigen receptor-induced NF-kB activation in a Jurkat cell line using a luminescence assay - Set 2. [Related pubchem assays (depositor defined):AID435003, AID435012, AID465]. Type of assay: functional, cell-based. The conditions noted are these: Homo sapiens.
The subject of assay [22] is HEK293. The experiment in a line: SAR Analysis of small molecule inhibitors of T-cell specific antigen receptor-induced NF-kB activation in a HEK-293T cell line using a luminescence assay - Set 2. [Related pubchem assays (depositor defined):AID435003, AID435012, AID489026]. The conditions noted are these: Homo sapiens. Type of assay: functional, cell-based.
Assay [23] concerns the target Beta-galactosidase (Escherichia coli, UniProt Q8VNN2). The experiment in a line: PubChem AID 485352. Type of assay: functional.
Assay [24] concerns the target T2, Type-1 angiotensin II receptor (Homo sapiens, UniProt P30556).
T2 sequence (P30556 whole entry): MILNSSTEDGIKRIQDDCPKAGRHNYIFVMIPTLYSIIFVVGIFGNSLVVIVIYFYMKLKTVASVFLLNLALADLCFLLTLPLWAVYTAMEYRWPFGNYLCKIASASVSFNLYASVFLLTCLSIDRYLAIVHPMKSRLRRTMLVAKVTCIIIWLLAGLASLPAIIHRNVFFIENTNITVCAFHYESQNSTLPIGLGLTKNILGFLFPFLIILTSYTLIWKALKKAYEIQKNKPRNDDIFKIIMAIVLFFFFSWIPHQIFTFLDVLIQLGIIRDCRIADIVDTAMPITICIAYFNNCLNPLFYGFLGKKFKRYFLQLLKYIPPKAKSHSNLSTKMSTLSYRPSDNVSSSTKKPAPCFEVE
The experiment in a line: antagonism of angiotensin II type 1 receptor – cell-based, uHTS hits, selectivity assay for APJ receptor antagonist project, dose response (AID 463214).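 Also: antagonist potency against angiotensin II stimulated AT1 response.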 Type of assay: functional.

Assay [25] deals with T3, Polyadenylate-binding protein 1 (Homo sapiens, UniProt P11940). Description: MLLE binding blockers, Cy5 peptide tracer – biochemical, fluorescence polarization, Cy5-PAM2 peptide, secondary, miRNA deadenylation inhibitor project, dose response (AID 602260). The conditions noted are these: read-out: IC50_Mean. Type of assay: functional. In general terms: In fluorescence polarisation assays a small probe gives low polarisation when free and higher when bound to something large.

Assay [26] has as its target T3, Polyadenylate-binding protein 1. Description: MLLE domain peptide-binding blockers, IC50 – biochemical, fluorescence polarization, FITC-PAM2 peptide, dose response (AID 602259). The conditions noted are these: read-out: IC50_Mean. The format is functional.

T3 sequence (P11940 whole entry): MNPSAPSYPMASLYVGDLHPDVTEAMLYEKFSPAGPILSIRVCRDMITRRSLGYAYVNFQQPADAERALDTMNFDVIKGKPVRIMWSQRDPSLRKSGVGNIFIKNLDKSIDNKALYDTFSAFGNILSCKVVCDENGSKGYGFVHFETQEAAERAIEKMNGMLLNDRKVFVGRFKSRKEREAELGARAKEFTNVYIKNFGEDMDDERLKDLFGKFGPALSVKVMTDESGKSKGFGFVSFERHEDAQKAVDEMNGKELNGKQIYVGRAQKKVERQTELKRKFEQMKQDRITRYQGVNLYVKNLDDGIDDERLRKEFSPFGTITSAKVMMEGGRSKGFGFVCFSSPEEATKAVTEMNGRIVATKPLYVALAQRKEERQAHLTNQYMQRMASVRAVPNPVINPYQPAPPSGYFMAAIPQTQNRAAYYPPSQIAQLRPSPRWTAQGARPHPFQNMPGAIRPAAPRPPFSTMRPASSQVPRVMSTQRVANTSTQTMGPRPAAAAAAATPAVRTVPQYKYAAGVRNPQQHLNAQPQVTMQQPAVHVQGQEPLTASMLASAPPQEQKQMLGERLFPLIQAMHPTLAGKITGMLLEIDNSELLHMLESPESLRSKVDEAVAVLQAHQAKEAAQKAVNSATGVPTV
Beta-galactosidase, sequence (Q8VNN2 whole entry): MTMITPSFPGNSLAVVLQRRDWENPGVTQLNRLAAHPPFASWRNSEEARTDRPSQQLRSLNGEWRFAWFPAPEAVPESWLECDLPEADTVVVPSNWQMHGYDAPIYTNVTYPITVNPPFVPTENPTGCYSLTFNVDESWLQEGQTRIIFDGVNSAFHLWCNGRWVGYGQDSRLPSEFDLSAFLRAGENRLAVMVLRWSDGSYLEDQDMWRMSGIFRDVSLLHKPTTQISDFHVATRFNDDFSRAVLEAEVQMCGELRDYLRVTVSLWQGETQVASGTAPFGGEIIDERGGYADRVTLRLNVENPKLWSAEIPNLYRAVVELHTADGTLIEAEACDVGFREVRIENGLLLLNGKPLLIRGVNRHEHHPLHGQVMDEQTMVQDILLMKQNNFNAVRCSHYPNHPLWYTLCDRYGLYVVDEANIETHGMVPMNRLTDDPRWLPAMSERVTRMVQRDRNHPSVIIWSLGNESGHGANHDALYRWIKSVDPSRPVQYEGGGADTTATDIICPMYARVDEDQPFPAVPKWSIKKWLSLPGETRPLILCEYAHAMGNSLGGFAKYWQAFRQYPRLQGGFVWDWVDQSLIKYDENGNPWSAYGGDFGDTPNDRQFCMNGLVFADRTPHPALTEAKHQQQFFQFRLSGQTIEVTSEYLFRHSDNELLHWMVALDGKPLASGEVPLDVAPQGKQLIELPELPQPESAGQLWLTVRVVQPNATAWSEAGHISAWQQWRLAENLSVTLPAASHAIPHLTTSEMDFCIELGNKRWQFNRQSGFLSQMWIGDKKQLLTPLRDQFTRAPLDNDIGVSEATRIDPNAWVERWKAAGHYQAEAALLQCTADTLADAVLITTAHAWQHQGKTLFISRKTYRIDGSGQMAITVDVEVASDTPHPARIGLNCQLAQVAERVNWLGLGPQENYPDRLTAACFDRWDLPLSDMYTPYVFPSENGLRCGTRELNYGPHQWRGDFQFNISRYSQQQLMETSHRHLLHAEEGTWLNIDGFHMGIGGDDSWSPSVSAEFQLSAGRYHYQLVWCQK
Cysteine protease ATG4B, sequence (Q9Y4P1 whole entry): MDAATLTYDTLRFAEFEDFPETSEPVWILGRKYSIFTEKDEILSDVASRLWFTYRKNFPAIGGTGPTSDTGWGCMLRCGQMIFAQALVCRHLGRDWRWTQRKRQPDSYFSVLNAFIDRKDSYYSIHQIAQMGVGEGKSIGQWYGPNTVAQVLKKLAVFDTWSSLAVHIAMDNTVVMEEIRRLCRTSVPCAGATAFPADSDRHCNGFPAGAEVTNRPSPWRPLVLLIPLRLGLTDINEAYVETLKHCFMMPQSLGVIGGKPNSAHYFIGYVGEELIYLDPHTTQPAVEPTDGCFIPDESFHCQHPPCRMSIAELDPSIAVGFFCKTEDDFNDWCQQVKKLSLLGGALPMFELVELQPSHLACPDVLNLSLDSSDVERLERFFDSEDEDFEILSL
CAAX prenyl protease 2, sequence (Q9Y256 whole entry): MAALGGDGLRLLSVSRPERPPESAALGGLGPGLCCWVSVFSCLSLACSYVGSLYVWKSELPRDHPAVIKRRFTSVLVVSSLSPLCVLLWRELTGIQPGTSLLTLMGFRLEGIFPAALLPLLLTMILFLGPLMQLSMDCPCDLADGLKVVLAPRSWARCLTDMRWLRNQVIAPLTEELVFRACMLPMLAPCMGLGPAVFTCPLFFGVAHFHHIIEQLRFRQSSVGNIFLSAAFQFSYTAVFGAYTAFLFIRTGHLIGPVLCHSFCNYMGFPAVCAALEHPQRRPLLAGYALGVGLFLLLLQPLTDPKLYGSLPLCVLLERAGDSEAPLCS
DNA topoisomerase, sequence (A0A2S9PM60 whole entry): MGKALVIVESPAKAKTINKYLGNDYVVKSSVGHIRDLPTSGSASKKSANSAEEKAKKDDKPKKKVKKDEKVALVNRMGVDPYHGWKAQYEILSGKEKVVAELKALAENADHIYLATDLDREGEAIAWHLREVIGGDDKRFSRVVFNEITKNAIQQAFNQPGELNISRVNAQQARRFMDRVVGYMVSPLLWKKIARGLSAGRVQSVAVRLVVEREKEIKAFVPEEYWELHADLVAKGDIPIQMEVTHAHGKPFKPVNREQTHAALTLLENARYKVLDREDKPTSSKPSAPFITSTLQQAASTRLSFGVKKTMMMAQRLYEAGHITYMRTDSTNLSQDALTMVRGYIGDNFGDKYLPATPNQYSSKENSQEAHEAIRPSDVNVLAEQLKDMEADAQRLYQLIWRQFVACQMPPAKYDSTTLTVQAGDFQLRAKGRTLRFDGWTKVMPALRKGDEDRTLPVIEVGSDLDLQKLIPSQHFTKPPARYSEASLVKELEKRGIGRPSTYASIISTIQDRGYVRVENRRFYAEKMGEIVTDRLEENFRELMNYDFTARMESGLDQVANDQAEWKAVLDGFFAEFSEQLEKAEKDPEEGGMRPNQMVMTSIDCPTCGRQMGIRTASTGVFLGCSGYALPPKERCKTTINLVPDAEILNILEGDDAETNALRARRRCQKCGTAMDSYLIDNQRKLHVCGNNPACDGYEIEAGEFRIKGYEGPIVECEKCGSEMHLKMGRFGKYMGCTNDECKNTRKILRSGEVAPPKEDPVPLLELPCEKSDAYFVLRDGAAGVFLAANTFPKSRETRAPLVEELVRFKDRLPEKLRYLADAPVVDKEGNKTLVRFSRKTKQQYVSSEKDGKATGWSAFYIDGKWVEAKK
DNA dC->dU-editing enzyme APOBEC-3A, sequence (P31941 whole entry): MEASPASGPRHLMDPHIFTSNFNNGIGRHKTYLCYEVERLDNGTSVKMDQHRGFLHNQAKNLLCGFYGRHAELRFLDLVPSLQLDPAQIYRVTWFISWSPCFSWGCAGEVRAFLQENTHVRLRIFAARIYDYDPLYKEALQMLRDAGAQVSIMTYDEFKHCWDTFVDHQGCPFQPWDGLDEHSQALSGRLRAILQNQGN
DNA dC->dU-editing enzyme APOBEC-3G, sequence (Q9HC16 whole entry): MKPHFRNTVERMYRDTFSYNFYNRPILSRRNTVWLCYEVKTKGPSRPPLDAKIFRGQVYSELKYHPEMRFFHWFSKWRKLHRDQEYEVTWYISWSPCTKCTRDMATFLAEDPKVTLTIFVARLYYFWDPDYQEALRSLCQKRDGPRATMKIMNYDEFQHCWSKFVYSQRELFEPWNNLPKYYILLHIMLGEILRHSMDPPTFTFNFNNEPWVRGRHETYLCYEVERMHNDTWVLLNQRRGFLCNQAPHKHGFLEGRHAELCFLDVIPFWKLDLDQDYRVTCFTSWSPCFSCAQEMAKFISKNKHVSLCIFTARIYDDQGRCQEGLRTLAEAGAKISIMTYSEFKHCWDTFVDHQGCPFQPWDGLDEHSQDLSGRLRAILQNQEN
Phosphomannomutase 2, sequence (O15305 whole entry): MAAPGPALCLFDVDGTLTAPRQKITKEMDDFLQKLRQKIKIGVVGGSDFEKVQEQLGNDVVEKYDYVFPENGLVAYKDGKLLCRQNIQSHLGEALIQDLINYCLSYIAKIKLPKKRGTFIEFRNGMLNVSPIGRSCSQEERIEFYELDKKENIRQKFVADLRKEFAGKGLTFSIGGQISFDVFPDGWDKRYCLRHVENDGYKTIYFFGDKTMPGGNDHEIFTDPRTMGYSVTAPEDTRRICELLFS
Trypsin, sequence (P00761 whole entry): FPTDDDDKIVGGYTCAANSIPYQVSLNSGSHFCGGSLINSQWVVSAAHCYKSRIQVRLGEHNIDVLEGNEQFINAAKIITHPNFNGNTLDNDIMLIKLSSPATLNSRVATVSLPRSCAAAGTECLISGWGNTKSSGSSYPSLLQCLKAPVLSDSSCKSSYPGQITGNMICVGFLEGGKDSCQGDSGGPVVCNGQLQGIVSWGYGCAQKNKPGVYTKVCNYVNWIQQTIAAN
Phospholipase A2, sequence (P04054 whole entry): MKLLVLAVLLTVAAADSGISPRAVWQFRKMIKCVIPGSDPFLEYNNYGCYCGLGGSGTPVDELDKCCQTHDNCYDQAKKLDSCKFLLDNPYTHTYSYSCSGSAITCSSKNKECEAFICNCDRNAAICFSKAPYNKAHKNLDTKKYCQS

As for `O=C(Nc1ccc(C(F)(F)F)cc1)N1CCN(c2ccnc3cc(Cl)ccc23)CC1`, the EC50 in assay [1] was 3.22 µM (active); in [2], > 60 µM (not active). The concentration at half-maximal activity (AC50) in [3] is 9.05 µM (active); in assay [4], 4.73 µM (active); in assay [5], 404 nM (active); in assay [6], 7.27 µM (active).

On to `O=C(NCc1cccc(C(F)(F)F)c1)C1CC(c2c(Cl)cccc2Cl)=NO1` (stereo unspecified), for which the results for the IC50 in [7] and in assay [8] were 46.4 µM (inactive) and > 80 µM (inactive), respectively.

Take `S=c1[nH]nc(C2COc3ccccc3O2)[nH]1` (stereo unspecified): the IC50 is 7.29 µM (active) in assay [9]; 3.89 µM (active) in assay [10]; > 100 µM (inactive) in [11]; > 100 µM (inactive) in assay [12]; 4.34 µM (active) in assay [13].

With `Cc1cccc(-c2oc3ccccc3c2C#CCCO)c1`, the CC50 in assay [14] is 19.5 µM (active). In addition, the AC50 in [15] is 7.86 µM (active); in assay [16], 3.96 µM (active); in assay [17], 32 µM (active). Moreover, the IC50 in assay [18] is 24.2 µM (active).

Take `Cc1cc(C(=O)COC(=O)Cc2nnc(O)c3ccccc23)c(C)n1-c1cccc(C(F)(F)F)c1`: the AC50 in assay [19] was 11.4 µM (active).

For the compound `O=C(Nc1cccc2ncccc12)c1ccc([N+](=O)[O-])o1`, the IC50 in assay [20] is 69.4 µM (inactive); in assay [21], 21.8 µM (inactive); in [22] it was 23.4 µM (inactive).

With `Cc1c(Cl)cccc1NC(=S)NNc1ncc(C(F)(F)F)cc1Cl`, the EC50 in [23] is > 40 µM (inactive). Besides, the IC50 was 11.9 µM (active) in [24], > 66 µM (inactive) in [25] and > 66 µM (inactive) in assay [26].

For orientation: EC50 means the concentration that produces a half-maximal response. A word on the AC50: it is the concentration at which the activity in the assay is half-maximal. The term CC50 denotes the concentration at which the toxic effect on the cells reaches its halfway point.
